# Data published in ChEMBL document CHEMBL1139936, “Annonaceous acetogenin mimics bearing a terminal lactam and their cytotoxicity against cancer cells” (Bioorg Med Chem Lett, 2007).
# The source made the active and inactive calls. No cut-off for these calls is given here.
# Experiments:
# [1] = Cytotoxicity against human Chang cells after 48 hrs by MTT assay; format: cell-based
# [2] = test system: B16; test: Cytotoxicity against […] B16 cells after 48 hrs by MTT assay; format: functional, cell-based; conditions: Mus musculus; for IC50: B16, 48 h
# [3] = (§1) Cytotoxicity against human BEL-7404 cells after 48 hrs by MTT assay; format: functional, cell-based; conditions: BEL-7404, 48 h
# [4] = test system: SK-HEP1; test: Cytotoxicity against human SKHep1 cells after 48 hrs by MTT assay; format: functional, cell-based; conditions: for IC50: SK-HEP1, 48 h
# [5] = test system: BEL-7404; test: as §1; format: functional, cell-based
smiles,measurement,setting,value
CCCCCCCCCC[C@H](O)COCCOC[C@@H](O)CCCCCCCCCCCCC1=C[C@H](C)N(CCCNC(=O)CCCCCNC(=O)OC(C)(C)C)C1=O,Activity,[1],Not Active
same,Activity,[2],inactive
same,IC50,[3],3200 nM
same,Activity,[4],inactive
CCCCCCCCCC[C@H](O)COCCOC[C@@H](O)CCCCCCCCCCCCC1=C[C@H](C)N(CCCNC(=O)CCCCCNC(=S)Nc2ccc3c(c2)C(=O)OC32c3ccc(O)cc3Oc3cc(O)ccc32)C1=O,Activity,[1],Not Active
same,Activity,[2],inactive
same,Activity,[5],inactive
same,Activity,[4],inactive
CCCCCCCCCC[C@H](O)COCCOC[C@@H](O)CCCCCCCCCCCCC1=C[C@H](C)N(CCCNC(=O)CCCCCNC(=O)CCCCCNC(=O)OC(C)(C)C)C1=O,Activity,[1],Not Active
same,Activity,[2],inactive
same,IC50,[3],2500 nM
same,Activity,[4],inactive
CCCCCCCCCC[C@H](O)COCCOC[C@@H](O)CCCCCCCCCCCCC1=C[C@H](C)N(CCCNC(=O)C(F)(F)F)C1=O,Activity,[1],Not Active
same,IC50,[2],995 nM
same,IC50,[3],1350 nM
same,Activity,[4],inactive
CCCCCCCCCC[C@H](O)COCCOC[C@@H](O)CCCCCCCCCCCCC1=C[C@H](C)N(C)C1=O,Activity,[1],Not Active
same,IC50,[2],13 nM
same,IC50,[3],234 nM
same,IC50,[4],589 nM
CCCCCCCCCC[C@H](O)COCCOC[C@@H](O)CCCCCCCCCCCCC1=CCN(C)C1=O,Activity,[1],Not Active
same,IC50,[2],168 nM
same,IC50,[3],168 nM
same,IC50,[4],104 nM
CCCCCCCCCC[C@H](O)COCCOC[C@@H](O)CCCCCCCCCCCCC1=C[C@H](C)OC1=O,Activity,[1],Not Active
same,IC50,[2],35 nM
same,IC50,[3],41 nM
same,IC50,[4],65 nM
CCCCCCCCCC[C@H](O)COCCOC[C@@H](O)CCCCCCCCCCCCC1=CC(C)(C)N(C)C1=O,Activity,[1],Not Active
same,IC50,[2],478 nM
same,IC50,[3],845 nM
same,IC50,[4],583 nM
CCCCCCCCCC[C@H](O)COCCOC[C@@H](O)CCCCCCCCCCCCC1=C[C@H](C)NC1=O,Activity,[1],Not Active
same,IC50,[2],35 nM
same,IC50,[3],2200 nM
same,Activity,[4],inactive
